Measurements as given in patent US10981953B2, “Method for promoting expression of calreticulin, and synthetic peptide for use in method for promoting expression of calreticulin” (TOAGOSEI CO., LTD., priority 2013, dated 2021).

Key:
[1] = system: BXM14 cells, a cultured cell line of mouse ES cells; assay: Calreticulin expression-promoting activity in ES cells, immunofluorescent antibody technique (Example 4); assay type: cell-based; conditions: mouse ES cells BXM14, peptide 50 μM, 3 days culture, confocal laser microscopy
Method: The calreticulin expression-promoting activity of the Samples 1 to 12 obtained in Example 1 was investigated. BXM14 cells, a cultured cell line of mouse ES cells (hereunder sometimes called “BXM14”), were used as the test cells. The details of the evaluation test were as follows.
The sample ES cells (BXM14) were seeded to a cell density of about 1×10^4 cells per well on 4-well slides. Using DMEM medium (Wako Pure Chemical, Cat No. 043-30085) containing 15% Knockout™ Serum Replacement (hereunder sometimes called “KSR”; Life Technologies, Cat No. 10828), 0.1 mM Non-essential Amino Acids Solution (hereunder sometimes called “NEAA”; Wako Pure Chemical, Cat No. 139-15651), 0.1 mM 2-mercaptoethanol (Sigma-Aldrich, Cat No. M7522) and 1000 units/mL of StemSure™ LIF, Mouse, recombinant, Solution (hereunder sometimes called “mLIF”; Wako Pure Chemical, Cat No. 199-116051), the cells were cultured overnight in an incubator under conditions of 5% CO2, 37° C. The DMEM medium containing KSR, NEAA, 2-mercaptoethanol and mLIF is also called simply “ES DMEM medium”. […]
(§1) These figures (images) are fluorescence micrographs examining calreticulin expression in each test group, and each combines (merges) a fluorescent image showing results for calreticulin expression in ES cells as measured by the immunofluorescent antibody technique with an image showing nuclear staining by DAPI.

[2] = system: iPS cells (clone name 201B2); assay: Calreticulin expression-promoting activity in iPS cells, immunofluorescent antibody technique (Example 3); assay type: cell-based; conditions: human iPS cells 201B2, peptide 10 μM, 5 days culture, confocal laser microscopy
Method: The calreticulin expression-promoting activity of the Samples 1 to 12 obtained in Example 1 was investigated. iPS cells (clone name 201B2, sometimes called simply 201B2 below) established from human fibroblasts were used as the test cells (source: Takahashi K et al., Cell, 131, 861-872 (2007)). These iPS cells were supplied by the Center for iPS Cell Research and Application, Kyoto University.
The test iPS cells (201B2) were seeded to a cell density of about 1×10^4 cells per well on matrigel-coated 8-well slides. Using mTeSR™ 1 medium (Stemcell Technologies) as the medium, the cells were cultured overnight in an incubator under conditions of 5% CO2, 37° C. Following this overnight culture, fresh mTeSR™ medium containing the peptides of Samples 1 to 12 in an amount yielding a peptide concentration of 10 μM was substituted, and the cells were further cultured for 5 days under the same conditions. Every day during this 5-day culture period, the medium was replaced with mTeSR™ 1 medium containing the peptides of Samples 1 to 12 in an amount yielding a peptide concentration of 10 μM. A peptide-free group was established as a control.
After completion of this culture, calreticulin expression in each test group was investigated by the immunofluorescent antibody technique (fluorescent immunostaining) using an anti-calreticulin antibody as in Example 2 except that a mixed solution of 1 vol. methanol and 1 vol. acetone (methanol:acetone=1:1 solution) was used to fix the cells, and the final concentration of the primary antibody was adjusted to 4×10^−3 mg/mL.
as §1, with “figures” for “figures (images)”, “iPS” for “ES”

HeLaS3 cells = assay: Calreticulin expression-promoting activity in tumor cells, immunofluorescent antibody technique (Example 2); assay type: cell-based, human; conditions: peptide 10 μM, 5 days culture, confocal laser microscopy
Excerpt: The calreticulin expression-promoting activity of the peptides of the Samples 1 to 12 obtained in Example 1 above was investigated. The sample cells were HeLaS3 cells (ATCC CCL2.2), a cultured cell line derived from human cervical cancer. These HeLaS3 cells (ATCC CCL2.2) are known as a genomically unstable cultured cell line, which has been confirmed to have multiple chromosome duplications or in other words chromosomal abnormalities (karyotypic abnormalities). The details of the evaluation test are as follows.
HeLaS3 cells were seeded on 8-well slides to a cell density of about 1×10^3 cells per well. […]
A diluted primary antibody solution comprising an anti-calreticulin monoclonal [FMC75] antibody (from mouse, Abcam, Cat. No. ab22683, Lot No. GR56669-4) as the primary antibody prepared with 1% BSA/PBS (−) (PBS (−) containing 1% BSA) to a final concentration of 2.5×10^−3 mg/mL was added to the culture containers of the HeLaS3 cells, and left overnight at 4° C. […] This was then sealed with a cover glass together with an enclosed liquid containing DAPI (4′,6-diamidino-2-phenylindole) (Life Technologies), and fluorescence was observed by confocal laser microscopy. […]

Sequence	fluorescence of the fluorescent label indicating calreticulin (expressed amount of calreticulin) compared with the peptide-free group and Sample 12 [2]	further results
CRAKAGDPC [Sample 1]	–	fluorescence of the fluorescent label indicating calreticulin (amount of calreticulin expression) compared with the peptide-free group and Sample 12 [1]: stronger fluorescence
KKRTLRKNDRKKR CRAKAGDPC (KKRTLRKNDRKKRCRAKAGDPC) [Sample 9]	stronger fluorescence	–
KKRTLRKNDRKKR GPRPPSLEC (KKRTLRKNDRKKRGPRPPSLEC) [Sample 11]	strong fluorescence	–
KKRTLRKNDRKKR NPGASF (KKRTLRKNDRKKRNPGASF) [Sample 10]	strong fluorescence	–
LAARAVRFSEKV [Sample 12]	–	fluorescence of the fluorescent label indicating calreticulin (expressed amount of calreticulin) compared with the peptide-free group (HeLaS3 cells): almost no fluorescence was detected
